Source: article PMC4147344, “Discovery of novel non-ATP competitive FGFR1 inhibitors and evaluation of their anti-tumor activity in non-small cell lung cancer in vitro and in vivo” (Oncotarget, 2014)
Several values for one entry are separate records, joined by “and”; a condition that tells them apart may be missing. Equal values may be shown once. Read-outs that look alike come from different tables or passages of the source.

How the values were obtained:
FGFR1 [1] = biological target: T1, FGFR1 (Homo sapiens, UniProt P11362); experiment: Cell-free kinase activity assay (Caliper Mobility Shift Assay); type: biochemical; settings: ATP at Km; mean of 3-5 independent tests
T1 construct: purchased Carna Biosciences Inc. (Kobe, Japan)
T1 sequence (P11362 22-822): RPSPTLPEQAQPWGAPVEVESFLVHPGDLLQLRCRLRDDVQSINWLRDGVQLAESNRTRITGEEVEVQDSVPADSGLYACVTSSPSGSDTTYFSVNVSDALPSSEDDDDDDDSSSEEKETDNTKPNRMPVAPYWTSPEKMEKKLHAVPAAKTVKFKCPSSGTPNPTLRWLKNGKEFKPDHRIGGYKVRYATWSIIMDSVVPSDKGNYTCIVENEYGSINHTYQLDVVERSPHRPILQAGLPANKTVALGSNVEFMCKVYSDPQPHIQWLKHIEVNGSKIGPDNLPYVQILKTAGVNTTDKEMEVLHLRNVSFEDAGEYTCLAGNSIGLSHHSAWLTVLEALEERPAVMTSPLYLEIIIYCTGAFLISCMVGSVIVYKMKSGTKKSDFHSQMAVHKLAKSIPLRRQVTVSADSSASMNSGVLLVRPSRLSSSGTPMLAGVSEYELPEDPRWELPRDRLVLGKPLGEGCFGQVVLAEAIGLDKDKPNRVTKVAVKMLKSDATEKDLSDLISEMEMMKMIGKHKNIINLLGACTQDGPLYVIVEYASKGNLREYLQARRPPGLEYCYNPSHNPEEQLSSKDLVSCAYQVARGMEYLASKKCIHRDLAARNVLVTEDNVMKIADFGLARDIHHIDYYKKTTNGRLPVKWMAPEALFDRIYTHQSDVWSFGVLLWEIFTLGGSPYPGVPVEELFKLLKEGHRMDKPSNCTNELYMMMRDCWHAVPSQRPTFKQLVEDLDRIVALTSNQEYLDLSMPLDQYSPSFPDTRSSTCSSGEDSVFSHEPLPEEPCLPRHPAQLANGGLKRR
Procedure: (§3) Compounds were performed with caliper mobility shift assay for RTK inhibition, and the IC50 values were calculated using conversion rates. The data were shown as a mean of 3-5 independent tests.
(§4) The activity of tyrosine kinase including FGFR1, FGFR2, FGFR3, EGFR, VEGFR-2, c-MET, and PDGFR-β were tested by Caliper Mobility Shift Assay on Caliper EZ reader (Caliper Life Sciences, MA) according to the instructions provided. […] For each kinase assay, the ATP concentration used in the assay was set at the Km value of the corresponding kinase. […] In the electrophoretic mobility shift assays, product accumulation was expressed as percentage conversion, product peak height/(product peak height + substrate peak height).

FGFR2 = biological target: T2, FGFR2 (Homo sapiens, UniProt P21802); experiment: as above; type: biochemical
T2 construct: purchased Carna Biosciences Inc. (Kobe, Japan)
T2 sequence (P21802 22-821): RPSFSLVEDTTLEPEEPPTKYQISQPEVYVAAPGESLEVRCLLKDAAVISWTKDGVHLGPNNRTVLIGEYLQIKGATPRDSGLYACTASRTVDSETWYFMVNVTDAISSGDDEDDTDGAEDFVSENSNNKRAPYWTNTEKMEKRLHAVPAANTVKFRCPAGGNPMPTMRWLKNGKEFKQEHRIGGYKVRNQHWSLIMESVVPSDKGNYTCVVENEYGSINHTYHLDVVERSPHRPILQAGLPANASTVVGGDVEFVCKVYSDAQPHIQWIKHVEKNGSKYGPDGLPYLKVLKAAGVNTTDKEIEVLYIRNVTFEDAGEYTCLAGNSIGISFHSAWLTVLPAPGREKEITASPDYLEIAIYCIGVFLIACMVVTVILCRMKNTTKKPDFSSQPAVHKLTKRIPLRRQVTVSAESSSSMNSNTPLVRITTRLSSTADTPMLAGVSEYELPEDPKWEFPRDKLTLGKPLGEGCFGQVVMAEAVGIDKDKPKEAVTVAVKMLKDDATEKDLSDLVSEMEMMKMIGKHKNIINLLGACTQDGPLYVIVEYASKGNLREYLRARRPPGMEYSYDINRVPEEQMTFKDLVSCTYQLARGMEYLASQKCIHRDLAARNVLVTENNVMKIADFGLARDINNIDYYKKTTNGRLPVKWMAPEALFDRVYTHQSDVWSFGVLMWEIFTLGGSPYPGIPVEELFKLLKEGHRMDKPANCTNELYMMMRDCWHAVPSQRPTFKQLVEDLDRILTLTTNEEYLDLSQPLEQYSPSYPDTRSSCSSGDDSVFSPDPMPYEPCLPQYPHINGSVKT
Procedure: as §3, §4

FGFR3 = biological target: T3, FGFR3 (Homo sapiens, UniProt P22607); experiment: as above; type: biochemical
T3 construct: purchased Carna Biosciences Inc. (Kobe, Japan)
T3 sequence (P22607 23-806): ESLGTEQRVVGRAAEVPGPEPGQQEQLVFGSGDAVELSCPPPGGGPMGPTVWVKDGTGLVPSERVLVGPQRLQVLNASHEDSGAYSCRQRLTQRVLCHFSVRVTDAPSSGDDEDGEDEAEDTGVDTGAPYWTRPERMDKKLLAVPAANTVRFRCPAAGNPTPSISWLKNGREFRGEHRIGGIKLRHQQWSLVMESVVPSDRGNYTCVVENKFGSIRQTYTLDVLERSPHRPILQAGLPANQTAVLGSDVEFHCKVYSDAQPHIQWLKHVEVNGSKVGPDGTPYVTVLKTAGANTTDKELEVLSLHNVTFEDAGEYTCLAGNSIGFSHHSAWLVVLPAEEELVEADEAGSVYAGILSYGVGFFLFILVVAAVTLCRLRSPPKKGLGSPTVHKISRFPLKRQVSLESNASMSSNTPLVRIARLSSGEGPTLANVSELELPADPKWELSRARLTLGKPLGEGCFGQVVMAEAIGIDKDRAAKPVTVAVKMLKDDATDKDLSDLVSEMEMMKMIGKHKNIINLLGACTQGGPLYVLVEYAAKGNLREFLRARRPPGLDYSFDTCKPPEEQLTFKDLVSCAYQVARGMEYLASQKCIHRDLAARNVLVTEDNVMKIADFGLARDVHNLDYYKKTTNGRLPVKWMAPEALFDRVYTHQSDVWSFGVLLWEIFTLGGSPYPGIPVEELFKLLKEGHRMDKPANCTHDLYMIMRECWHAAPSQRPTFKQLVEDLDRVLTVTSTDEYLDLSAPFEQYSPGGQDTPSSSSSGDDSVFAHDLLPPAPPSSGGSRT
Procedure: as §3, §4

EGFR = biological target: T4, EGFR (Homo sapiens, UniProt P00533); experiment: as above; type: biochemical; settings: ATP at Km; mean of 3-5 independent tests
T4 construct: purchased Carna Biosciences Inc. (Kobe, Japan)
T4 sequence (P00533 25-1210): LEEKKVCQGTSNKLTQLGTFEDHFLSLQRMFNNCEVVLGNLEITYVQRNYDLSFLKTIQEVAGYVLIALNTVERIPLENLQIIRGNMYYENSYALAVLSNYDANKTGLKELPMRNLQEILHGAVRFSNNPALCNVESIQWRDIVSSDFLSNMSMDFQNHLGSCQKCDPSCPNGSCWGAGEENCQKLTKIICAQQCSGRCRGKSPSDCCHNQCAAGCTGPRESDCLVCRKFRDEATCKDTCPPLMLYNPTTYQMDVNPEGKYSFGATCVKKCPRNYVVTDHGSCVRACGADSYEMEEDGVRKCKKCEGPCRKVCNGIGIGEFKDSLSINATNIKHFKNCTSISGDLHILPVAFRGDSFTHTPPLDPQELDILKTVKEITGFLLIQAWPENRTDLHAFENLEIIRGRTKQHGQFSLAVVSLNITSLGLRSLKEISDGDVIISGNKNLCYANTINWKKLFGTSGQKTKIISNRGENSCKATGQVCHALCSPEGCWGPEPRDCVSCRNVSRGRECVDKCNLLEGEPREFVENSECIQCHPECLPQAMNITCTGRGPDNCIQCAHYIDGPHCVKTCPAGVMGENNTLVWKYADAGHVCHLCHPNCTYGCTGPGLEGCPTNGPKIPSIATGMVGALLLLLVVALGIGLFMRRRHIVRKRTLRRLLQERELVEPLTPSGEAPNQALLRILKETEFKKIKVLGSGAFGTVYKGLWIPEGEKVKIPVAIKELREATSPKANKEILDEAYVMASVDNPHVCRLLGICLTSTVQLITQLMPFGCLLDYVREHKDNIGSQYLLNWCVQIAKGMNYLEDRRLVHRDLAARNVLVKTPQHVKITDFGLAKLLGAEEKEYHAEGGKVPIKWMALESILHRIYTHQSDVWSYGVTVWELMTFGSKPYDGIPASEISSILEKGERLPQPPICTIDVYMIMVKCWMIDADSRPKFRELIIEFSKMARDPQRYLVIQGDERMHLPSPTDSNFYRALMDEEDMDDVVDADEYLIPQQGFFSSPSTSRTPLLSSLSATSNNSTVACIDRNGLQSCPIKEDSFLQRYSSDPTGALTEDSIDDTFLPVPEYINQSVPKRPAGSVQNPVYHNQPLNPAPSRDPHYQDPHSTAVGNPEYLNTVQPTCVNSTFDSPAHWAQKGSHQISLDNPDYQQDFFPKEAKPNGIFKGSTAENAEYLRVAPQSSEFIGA
Procedure: as §3, §4

VEGFR2 = biological target: T5, VEGFR2 (Homo sapiens, UniProt P35968); experiment: as above; type: biochemical; settings: ATP at Km; mean of 3-5 independent tests
T5 construct: purchased Carna Biosciences Inc. (Kobe, Japan)
T5 sequence (P35968 20-1356): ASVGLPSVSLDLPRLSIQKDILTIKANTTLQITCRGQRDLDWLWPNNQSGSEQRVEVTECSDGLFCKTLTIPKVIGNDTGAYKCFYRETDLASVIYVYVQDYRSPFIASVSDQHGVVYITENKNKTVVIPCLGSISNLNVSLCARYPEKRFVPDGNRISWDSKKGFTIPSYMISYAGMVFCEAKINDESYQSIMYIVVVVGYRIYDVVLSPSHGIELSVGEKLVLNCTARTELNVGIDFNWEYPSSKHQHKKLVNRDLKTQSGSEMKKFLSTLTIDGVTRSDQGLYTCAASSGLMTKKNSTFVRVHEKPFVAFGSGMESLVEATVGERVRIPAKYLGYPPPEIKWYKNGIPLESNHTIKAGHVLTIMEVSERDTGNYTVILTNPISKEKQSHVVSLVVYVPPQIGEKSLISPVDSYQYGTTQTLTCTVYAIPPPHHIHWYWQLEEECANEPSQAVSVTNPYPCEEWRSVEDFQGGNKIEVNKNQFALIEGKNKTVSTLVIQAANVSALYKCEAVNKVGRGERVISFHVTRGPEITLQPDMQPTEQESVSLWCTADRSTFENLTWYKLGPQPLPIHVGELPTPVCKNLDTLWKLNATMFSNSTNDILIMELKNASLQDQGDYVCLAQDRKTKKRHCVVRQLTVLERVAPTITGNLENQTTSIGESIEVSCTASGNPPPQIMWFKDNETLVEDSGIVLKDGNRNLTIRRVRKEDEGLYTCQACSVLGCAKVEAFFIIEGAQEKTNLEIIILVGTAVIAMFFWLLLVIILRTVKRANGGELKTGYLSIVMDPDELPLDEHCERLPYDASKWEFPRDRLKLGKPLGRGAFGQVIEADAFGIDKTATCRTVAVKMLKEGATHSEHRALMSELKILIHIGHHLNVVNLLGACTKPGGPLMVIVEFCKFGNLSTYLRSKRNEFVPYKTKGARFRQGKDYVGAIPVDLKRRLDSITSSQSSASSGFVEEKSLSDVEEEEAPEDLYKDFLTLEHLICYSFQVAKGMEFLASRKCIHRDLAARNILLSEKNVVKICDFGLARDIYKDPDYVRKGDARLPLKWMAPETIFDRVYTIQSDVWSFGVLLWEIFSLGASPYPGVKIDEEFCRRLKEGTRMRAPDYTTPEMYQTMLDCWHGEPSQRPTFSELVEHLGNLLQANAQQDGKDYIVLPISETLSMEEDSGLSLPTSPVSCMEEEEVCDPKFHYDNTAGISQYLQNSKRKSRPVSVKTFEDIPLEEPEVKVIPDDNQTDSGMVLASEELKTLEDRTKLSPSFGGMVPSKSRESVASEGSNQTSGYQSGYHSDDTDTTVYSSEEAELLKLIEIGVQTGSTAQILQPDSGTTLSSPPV
Procedure: as §3, §4

c-MET = c-MET (Homo sapiens, UniProt P08581); experiment: as above; type: biochemical; settings: ATP at Km; mean of 3-5 independent tests
Procedure: as §3, §4

PDGFRβ = biological target: T6, PDGFRβ (Homo sapiens, UniProt P09619); experiment: as above; type: biochemical; settings: ATP at Km; mean of 3-5 independent tests
T6 construct: purchased Carna Biosciences Inc. (Kobe, Japan)
Procedure: as §3, §4

FGFR1 [2] = biological target: T1, FGFR1; experiment: ATP competitive inhibition assay (caliper mobility shift assay); type: biochemical; settings: ATP 33-4192 μM, substrate constant
Procedure: In the experiments for testing the relationship between the compounds and ATP, the concentration of the substrate was constant, while the concentrations of ATP were set at 4192, 2096, 1048, 524, 262, 131, 66, and33 μM. The global competitive inhibition fit for the compounds was performed based on percent conversion = (Vmax*X)/{km*[([1] + I/Ki)^n] + X}, where X is the ATP concentration, and n is the Hill coefficient.

[3] = tested on: FGFR1-overexpressing HEK293 cells; experiment: bFGF-induced phosphorylation of FGFR1 and ERK, western blot; type: cell-based; settings: bFGF 30 ng/mL for 10 min, pretreatment with compound
Procedure: (C and D) FGFR1 over-expressing 293 cells were pretreated with compounds at indicated concentrations or vehicle (0.1% DMSO), respectively. Then, cells were stimulated with bFGF (30 ng/mL) for 10 min, and the phosphorylation level of FGFR1 and ERK in cell lysates was measured by western blot analysis. The figures were representative of 3 separate experiments (C). […] Statistical significance relative to bFGF alone group was expressed, * P <0.05, ** P < 0.01.
Cells or homogenated tumor tissues were lysated. The protein concentrations in all samples were determined by using the Bradford protein assay kit (Bio-Rad, Hercules, CA). The supernatant was run on 10% SDS-PAGE gel followed by being transferred to a PVDF membrane. After being blocked with 5% non-fat dry milk in TBST for 1.5h, the membrane was incubated with the primary antibody overnight followed by incubation with goat anti-rabbit IgG, HRP-linked antibody for 1 h. The blots were detected with an ECL detection kit (Bio-Rad, Hercules, CA) according to the manufacturer's procedure. The results were analyzed by Quantity One software to determine the relative band density ratio.

H460 cells [4] = experiment: bFGF-induced phosphorylation of FGFR1, western blot; type: cell-based, human; settings: bFGF 30 ng/mL for 10 min, pretreatment with compound
Procedure: (§1) Figure 3 […]25 inhibited proliferation and induced apoptosis in H460 cells (A) H460 cells were pretreated with compounds at indicated concentrations, followed by the treatment with bFGF (30 ng/mL) for 10 min. The phosphorylation level of FGFR1 in cell lysates was measured by western blot analysis. The column figures show the normalized optical density as a percentage of total FGFR1 control. (B) H460 cells were treated with compounds at concentrations (0.74, 2.22, 6.67, 20, and 60 μM) for 72 h. The MTT assay gives the respective IC50 values of compounds. (C) The time-course cell survival profile of H460 cells treated by compounds at 20 μM was detected through an MTT assay. (D) Effects of […]25 on caspase activation in H460 cells. […] The levels of cleaved caspase-3 and cleaved caspase-9 were determined by western blot analysis.

H460 cells [5] = experiment: MTT anti-proliferation assay; type: cell-based, human; settings: for Time-course cell survival (MTT): 20 μM, 0-72 h; for IC50: Homo sapiens, NCI-H460, 72 h, read-out: IC50 against H460 cells (MTT)
Procedure: as §1

H460 cells [6] = experiment: Caspase activation (cleaved caspase-3 and -9), western blot; type: cell-based, human; settings: 10 μM, 12 h
Procedure: as §1

H460 cells [7] = experiment: Apoptosis analysis, Annexin V/PI flow cytometry; type: cell-based, human; settings: 2.5, 5, 10 μM
H460 xenograft = experiment: In vivo anti-tumor study, H460 xenograft; set-up: species or system BALB/cA nude mice; settings: for Tumor weight inhibition rate: 3 mg/kg/d i.p. once daily for 28 days; for Tumor volume: 3 mg/kg/d i.p., 28th day, compared to model group
Procedure: (§2) Figure 4 Anti-tumor effects of compounds […] H460 xenograft models Xenografts were established in nude mice. […] (A) Tumor volume (mm^3) and (B) Tumor weight (g) were recorded (* P <0.05, ** P < 0.01). (C) Body weight of each mice was recorded. (D) pFGFR1 expressions in tumor tissues were detected by Western Blot with FGFR1 as internal control. (E) The levels of p-ERK, p-AKT, Bcl-2, CyclinD1, and COX-2 in tumor tissues were detected by immunohistochemical staining. Representative pictures are shown.

[8] = Body weight of mice in H460 xenograft study; type: in vivo, BALB/cA nude mice; settings: for Change of body weight during treatment: 3 mg/kg/d i.p. for 28 days; for Body weight: 3 mg/kg/d i.p., in g (unit assumed)
Procedure: as §2

[9] = tested on: H460 xenograft tumor tissue; experiment: Protein levels in xenograft tumor tissue (western blot, immunohistochemistry); type: in vivo, BALB/cA nude mice; settings: 3 mg/kg/d i.p.; for Phosphorylated FGFR1 in tumor tissue (western blot): compared to untreated group; for Expression of Bcl-2, Cyclin D1 and cox-2 in tumor tissue (immunohistochemistry): compared with model group
Procedure: as §2

Row | Compound | IC50 (FGFR1 [1]) | IC50 (EGFR) [µM] | IC50 (VEGFR2) [µM] | IC50 (c-MET) [µM] | IC50 (PDGFRβ) [µM] | Effect of increased ATP concentration on FGFR1 inhibition (mode of inhibition) (FGFR1 [2]) | Phosphorylation of FGFR1 and ERK [3] | Phosphorylation of FGFR1 (H460 cells [4]) | Time-course cell survival (MTT) (H460 cells [5]) | IC50 (H460 cells [5]) [µM] | Expression of cleaved caspase 3 and 9 (H460 cells [6]) | Apoptotic cell rate (H460 cells [7]) | Tumor weight inhibition rate (H460 xenograft) [%] | Tumor volume (H460 xenograft) | Change of body weight during treatment [8] | Body weight ([8]; Week 1st) | Body weight ([8]; Week 2nd) | Body weight ([8]; Week 3rd) | Body weight ([8]; Week 4th) | Phosphorylated FGFR1 in tumor tissue (western blot) [9] | also measured
1 | O=C1/C(=C/c2ccccc2Br)CNC/C1=C\c1ccccc1Br [Aea25] | 8.8 µM and 6.5 µM | 33.3 | 28.6 | 8.2 | 84 | ATP independent manner | inhibited their phosphorylation of FGFR1 and ERK in a dose-dependent manner | inhibited this effect in a dose-dependent fashion | inhibit cell proliferation and increase cell death of H460 time-dependently | 5.8 | significantly increased | induced H460 cell apoptosis in a dose-dependent manner | 66.5 | significant reduction in tumor volume at the 28th day | no obvious change | 22.01 ± 0.75 | 24.02 ± 0.53 | 25.26 ± 0.38 | 25.36 ± 0.51 | decreased expression of phosphorylated FGFR1 | IC50 (FGFR2): 43.3 µM; IC50 (FGFR3): 43.2 µM; Expression of Bcl-2, Cyclin D1 and cox-2 in tumor tissue (immunohistochemistry) [9]: effectively restrained the expression of Bcl-2, Cyclin D1 and cox-2
2 | O=C1/C(=C/c2ccccc2Cl)CNC/C1=C\c1ccccc1Cl [Aea4] | – | – | – | – | – | – | inhibited their phosphorylation of FGFR1 and ERK in a dose-dependent manner | inhibited this effect in a dose-dependent fashion | inhibit cell proliferation and increase cell death of H460 time-dependently | 5 | significantly increased | induced H460 cell apoptosis in a dose-dependent manner | 55.0 | significant reduction in tumor volume at the 28th day | no obvious change | 23.37 ± 0.73 | 24.94 ± 0.83 | 25.81 ± 0.85 | 24.94 ± 0.79 | decreased expression of phosphorylated FGFR1 | Expression of Bcl-2, Cyclin D1 and cox-2 in tumor tissue (immunohistochemistry) [9]: effectively restrained the expression of Bcl-2, Cyclin D1 and cox-2
3 | C[C@H](Cc1ccc(O)c(O)c1)[C@@H](C)Cc1ccc(O)c(O)c1 [NDGA, Nordihydroguaiaretic acid, reference compound] | 24.5 µM | 89.9 | > 100 | > 100 | > 100 | did not affect the rate of FGFR1 substrate phosphorylation | – | – | – | 15.6 ± 1.2 | – | – | – | – | – | – | – | – | – | – | IC50 (FGFR2; ATP at Km, mean of 3-5 independent tests, read-out: IC50 FGFR2): > 100 µM; IC50 (FGFR3; ATP at Km, mean of 3-5 independent tests, read-out: IC50 FGFR3): 72.4 µM
